Data on 9 compounds can be found in patent publication US20230364070A1, “PYRROLO[3,2-C]PYRIDIN-4-ONE DERIVATIVES USEFUL IN THE TREATMENT OF CANCER” (Scorpion Therapeutics, Inc., priority 2020, published 2023).

What all share (type): cell-based
For experiment [1], the target named is T1, Ba/F3 cells with EGFR WT (Homo sapiens, UniProt P00533).
T1 construct: expressed in transfected cells; host or cells: Ba/F3 (murine pro-B cells), retroviral transduction, puromycin selection, maintained with EGF
T1 sequence (P00533 25-1210): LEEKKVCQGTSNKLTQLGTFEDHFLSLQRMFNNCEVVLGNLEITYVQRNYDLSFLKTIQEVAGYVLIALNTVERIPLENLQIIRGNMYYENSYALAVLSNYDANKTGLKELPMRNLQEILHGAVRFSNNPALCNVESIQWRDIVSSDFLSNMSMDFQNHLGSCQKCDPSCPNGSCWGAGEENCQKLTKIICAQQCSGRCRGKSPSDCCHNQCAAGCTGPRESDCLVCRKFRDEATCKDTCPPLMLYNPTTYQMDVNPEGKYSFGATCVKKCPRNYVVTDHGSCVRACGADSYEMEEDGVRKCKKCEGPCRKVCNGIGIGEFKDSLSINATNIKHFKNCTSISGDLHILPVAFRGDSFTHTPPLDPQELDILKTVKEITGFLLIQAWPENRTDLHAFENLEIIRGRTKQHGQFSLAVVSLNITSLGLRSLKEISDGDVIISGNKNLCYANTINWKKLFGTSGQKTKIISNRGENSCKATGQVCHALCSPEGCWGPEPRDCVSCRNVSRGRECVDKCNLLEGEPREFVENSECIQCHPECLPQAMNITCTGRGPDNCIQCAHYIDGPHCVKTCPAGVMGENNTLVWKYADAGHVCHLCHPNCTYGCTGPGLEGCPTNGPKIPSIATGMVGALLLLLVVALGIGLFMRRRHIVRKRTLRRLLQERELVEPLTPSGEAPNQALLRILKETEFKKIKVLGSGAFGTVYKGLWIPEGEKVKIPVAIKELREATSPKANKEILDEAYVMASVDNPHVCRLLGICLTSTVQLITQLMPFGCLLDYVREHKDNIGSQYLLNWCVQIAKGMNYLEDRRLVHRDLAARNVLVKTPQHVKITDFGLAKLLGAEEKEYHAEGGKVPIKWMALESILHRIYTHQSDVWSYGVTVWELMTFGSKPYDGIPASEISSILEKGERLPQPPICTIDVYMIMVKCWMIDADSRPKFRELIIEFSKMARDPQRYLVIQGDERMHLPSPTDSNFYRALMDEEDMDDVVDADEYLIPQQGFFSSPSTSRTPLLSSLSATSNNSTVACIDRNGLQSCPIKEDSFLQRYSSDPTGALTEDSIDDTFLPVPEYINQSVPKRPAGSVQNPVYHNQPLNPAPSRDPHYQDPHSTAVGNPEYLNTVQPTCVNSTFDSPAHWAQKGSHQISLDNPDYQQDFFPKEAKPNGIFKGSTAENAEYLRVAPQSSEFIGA
The experiment can be described thus: EGFR activity: Ba/F3 cell viability (CellTiter-Glo, 72 h), EGFR WT. The conditions noted are these: read-out: BaF3 WT IC50. For orientation: In ATP-based viability assays light output follows the ATP content of the culture.

In experiment [2] the target is T2, Ba/F3 cells with EGFR exon 20 NPG Ins D770_N771 (Homo sapiens, UniProt P00533, INS770NPG).
T2 construct: expressed in transfected cells; host or cells: Ba/F3 (murine pro-B cells), retroviral transduction, puromycin selection, IL3-independent pool
T2 sequence (P00533 with tags, fused parts or gaps INS770NPG): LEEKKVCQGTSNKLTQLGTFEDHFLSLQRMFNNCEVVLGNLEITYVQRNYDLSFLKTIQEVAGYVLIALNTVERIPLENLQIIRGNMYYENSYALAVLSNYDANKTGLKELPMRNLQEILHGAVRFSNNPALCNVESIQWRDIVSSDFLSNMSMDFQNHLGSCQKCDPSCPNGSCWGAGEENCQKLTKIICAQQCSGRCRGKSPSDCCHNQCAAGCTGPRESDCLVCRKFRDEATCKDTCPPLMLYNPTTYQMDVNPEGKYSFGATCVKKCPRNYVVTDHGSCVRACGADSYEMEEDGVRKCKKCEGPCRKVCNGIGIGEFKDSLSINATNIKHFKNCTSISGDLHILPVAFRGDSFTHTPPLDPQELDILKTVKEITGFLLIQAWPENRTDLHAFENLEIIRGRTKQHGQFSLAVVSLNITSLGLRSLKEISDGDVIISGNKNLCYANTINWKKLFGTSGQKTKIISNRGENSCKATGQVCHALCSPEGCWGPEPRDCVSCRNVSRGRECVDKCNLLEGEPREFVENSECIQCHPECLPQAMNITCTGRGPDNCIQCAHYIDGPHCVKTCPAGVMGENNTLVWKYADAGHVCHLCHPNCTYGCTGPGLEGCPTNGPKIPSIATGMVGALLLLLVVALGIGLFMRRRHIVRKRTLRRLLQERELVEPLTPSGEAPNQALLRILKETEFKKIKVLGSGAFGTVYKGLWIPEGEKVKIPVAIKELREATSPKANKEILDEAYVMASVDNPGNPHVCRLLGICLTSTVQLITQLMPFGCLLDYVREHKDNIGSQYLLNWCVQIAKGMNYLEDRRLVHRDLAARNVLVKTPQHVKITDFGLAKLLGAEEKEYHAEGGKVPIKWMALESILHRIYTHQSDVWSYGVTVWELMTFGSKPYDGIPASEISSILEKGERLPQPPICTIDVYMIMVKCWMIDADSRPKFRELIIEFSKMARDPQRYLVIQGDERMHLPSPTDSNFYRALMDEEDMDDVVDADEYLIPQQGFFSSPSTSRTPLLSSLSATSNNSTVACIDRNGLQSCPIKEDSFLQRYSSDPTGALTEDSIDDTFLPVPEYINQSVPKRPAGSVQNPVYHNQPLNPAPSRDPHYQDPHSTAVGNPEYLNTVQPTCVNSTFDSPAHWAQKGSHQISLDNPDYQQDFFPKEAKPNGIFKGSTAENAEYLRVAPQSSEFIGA
Put plainly: EGFR activity: Ba/F3 cell viability (CellTiter-Glo, 72 h), EGFR exon 20 NPG insertion. To be noted: EGFR exon 20 NPG Ins D770_N771, cell viability, read-out: BaF3 NPG IC50.

The target in experiment [3] is T3, Ba/F3 cells with EGFR exon 20 ASV Ins V769_D770 (Homo sapiens, UniProt P00533, INS769ASV).
T3 construct: expressed in transfected cells; host or cells: Ba/F3 (murine pro-B cells), retroviral transduction, puromycin selection, IL3-independent pool
T3 sequence (P00533 with tags, fused parts or gaps INS769ASV): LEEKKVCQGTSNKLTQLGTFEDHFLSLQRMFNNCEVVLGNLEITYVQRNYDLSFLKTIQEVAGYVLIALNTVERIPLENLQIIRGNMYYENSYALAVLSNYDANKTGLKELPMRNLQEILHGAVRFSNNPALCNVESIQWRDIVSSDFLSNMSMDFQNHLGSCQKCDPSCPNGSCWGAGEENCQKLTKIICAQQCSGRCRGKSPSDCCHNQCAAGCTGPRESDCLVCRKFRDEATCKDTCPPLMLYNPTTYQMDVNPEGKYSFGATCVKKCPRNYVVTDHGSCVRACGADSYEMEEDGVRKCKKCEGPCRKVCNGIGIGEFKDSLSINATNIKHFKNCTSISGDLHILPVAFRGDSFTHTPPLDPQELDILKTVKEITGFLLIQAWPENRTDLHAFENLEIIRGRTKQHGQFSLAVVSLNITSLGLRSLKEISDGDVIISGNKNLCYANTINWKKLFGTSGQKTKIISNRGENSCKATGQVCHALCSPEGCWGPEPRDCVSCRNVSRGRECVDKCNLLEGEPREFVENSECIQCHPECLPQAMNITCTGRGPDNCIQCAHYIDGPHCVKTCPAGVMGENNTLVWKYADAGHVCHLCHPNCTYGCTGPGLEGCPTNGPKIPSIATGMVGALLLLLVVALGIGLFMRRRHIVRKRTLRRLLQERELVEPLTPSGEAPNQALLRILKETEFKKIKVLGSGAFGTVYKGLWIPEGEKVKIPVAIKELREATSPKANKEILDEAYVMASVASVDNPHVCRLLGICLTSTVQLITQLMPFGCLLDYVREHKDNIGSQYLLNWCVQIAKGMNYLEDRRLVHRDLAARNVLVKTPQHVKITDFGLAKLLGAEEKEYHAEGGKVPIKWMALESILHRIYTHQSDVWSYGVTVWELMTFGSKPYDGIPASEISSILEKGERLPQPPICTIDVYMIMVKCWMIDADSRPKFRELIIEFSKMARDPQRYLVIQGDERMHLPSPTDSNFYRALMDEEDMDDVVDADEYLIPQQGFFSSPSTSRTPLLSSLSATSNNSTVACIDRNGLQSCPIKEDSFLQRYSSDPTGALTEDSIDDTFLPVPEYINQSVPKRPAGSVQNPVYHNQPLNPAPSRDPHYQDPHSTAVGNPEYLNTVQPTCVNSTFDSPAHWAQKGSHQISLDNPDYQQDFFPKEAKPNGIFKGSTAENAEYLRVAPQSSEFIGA
Put plainly: EGFR activity: Ba/F3 cell viability (CellTiter-Glo, 72 h), EGFR exon 20 ASV insertion. To be noted: EGFR exon 20 ASV Ins V769_D770, cell viability, read-out: BaF3 ASV IC50.

For experiment [4], the target named is T4, pEGFR in Ba/F3 cells expressing EGFR exon 20 NPG Ins D770_N771 (Homo sapiens, UniProt P00533, INS770NPG).
T4 construct: expressed in transfected cells; host or cells: Ba/F3 (murine pro-B cells), retroviral transduction, puromycin selection, IL3-independent pool
T4 sequence (P00533 with tags, fused parts or gaps INS770NPG): as the sequence (P00533 with tags, fused parts or gaps INS770NPG) above
Put plainly: Inhibitor activity on EGFR phosphorylation (pEGFR AlphaLISA, 2 h), Ba/F3 EGFR exon 20 NPG insertion. To be noted: Ba/F3 EGFR exon 20 NPG Ins D770_N771. Background: In Alpha technology, singlet oxygen from a donor bead excites a nearby acceptor bead.

Where only a bound is given, the exact number is not on record here.

With `C=CC(=O)N1CCC[C@@H]1COc1cnccc1-c1[nH]c2c(c1Nc1cccc(Cl)c1OC)C(=O)NCC2` [Compound 138a, 3-[(3-chloro-2-methoxyphenyl)amino]-2-(3-[[(2R)-1-(prop-2-enoyl)pyrrolidin-2-yl]methoxy]pyridin-4-yl)-1H,5H,6H,7H-pyrrolo[3,2-c]pyridin-4-one], the IC50 is 100 to 1000 nM in experiment [1], less than 100 nM in experiment [2], less than 100 nM in experiment [3] and less than 100 nM in experiment [4].

On to `C=CC(=O)N1CCC[C@H]1COc1cnccc1-c1[nH]c2c(c1Nc1cccc(Cl)c1OC)C(=O)NCC2` [Compound 138b, (S)-2-(3-((1-acryloylpyrrolidin-2-yl)methoxy)pyridin-4-yl)-3-((3-chloro-2-methoxyphenyl)amino)-1,5,6,7-tetrahydro-4H-pyrrolo[3,2-c]pyridin-4-one], for which the concentration for half-maximal inhibition (IC50) in experiment [1] is 100 to 1000 nM; in experiment [2] it was less than 100 nM; in experiment [3] it was less than 100 nM; in experiment [4], less than 100 nM.

Regarding `CCC(=O)N1CCC[C@H]1COc1cnccc1-c1[nH]c2c(c1Nc1cccc(Cl)c1OC)C(=O)NCC2` [Compound 139, (S)-3-((3-chloro-2-methoxyphenyl)amino)-2-(3-((1-propionylpyrrolidin-2-yl)methoxy)pyridin-4-yl)-1,5,6,7-tetrahydro-4H-pyrrolo[3,2-c]pyridin-4-one], the IC50 was more than 1000 nM in experiment [1], more than 1000 nM in experiment [2], more than 1000 nM in experiment [3] and 100 to 1000 nM in experiment [4].

Consider `COc1c(Cl)cccc1Nc1c(-c2ccncc2OC[C@H]2CCCN2S(C)(=O)=O)[nH]c2c1C(=O)NCC2` [Compound 142b, 3-[(3-chloro-2-methoxyphenyl)amino]-2-(3-[[(2R)-1-methanesulfonylpyrrolidin-2-yl]methoxy]pyridin-4-yl)-1H,5H,6H,7H-pyrrolo[3,2-c]pyridin-4-one], for which the IC50 in experiment [1] is 100 to 1000 nM; in experiment [2], less than 100 nM; in experiment [3], less than 100 nM; in experiment [4] it was less than 100 nM.

Turning to `COc1c(Cl)cccc1Nc1c(-c2ccncc2C#CC(C)(C)OC)[nH]c2c1C(=O)NCC2` [Compound 188, 3-((3-chloro-2-methoxyphenyl)amino)-2-(3-(3-methoxy-3-methylbut-1-yn-1-yl)pyridin-4-yl)-1,5,6,7-tetrahydro-4H-pyrrolo[3,2-c]pyridin-4-one], the IC50 in experiment [1] was less than 100 nM; in experiment [2], less than 100 nM; in experiment [3], 100 to 1000 nM; in experiment [4] it was less than 100 nM.

As to `C=CC(=O)N1CCCC[C@@H]1COc1cnccc1-c1[nH]c2c(c1Nc1cccc(F)c1C)C(=O)NCC2` [Compound 468, 3-[(3-fluoro-2-methylphenyl)amino]-2-(3-[[(2R)-1-(prop-2-enoyl)piperidin-2-yl]methoxy]pyridin-4-yl)-1H,5H,6H,7H-pyrrolo[3,2-c]pyridin-4-one], the IC50 in experiment [1] is 100 to 1000 nM; in experiment [2], 100 to 1000 nM; in experiment [3], 100 to 1000 nM; in experiment [4], less than 100 nM.

For `CCC(=O)N1CCC[C@@H]1COc1cnccc1-c1[nH]c2c(c1Nc1cccc(Cl)c1OC)C(=O)NCC2` [Compound 470, 3-[(3-chloro-2-methoxyphenyl)amino]-2-(3-[[(2R)-1-propanoylpyrrolidin-2-yl]methoxy]pyridin-4-yl)-1H,5H,6H,7H-pyrrolo[3,2-c]pyridin-4-one], the concentration for half-maximal inhibition (IC50) in experiment [1] is more than 1000 nM; in experiment [2], more than 1000 nM; in experiment [3] it was more than 1000 nM; in experiment [4] it was 100 to 1000 nM.

With `COc1c(F)cccc1Nc1c(-c2ccncc2OCc2nccn2C)[nH]c2c1C(=O)NCC2` [Compound 482, 3-[(3-fluoro-2-methoxyphenyl)amino]-2-[3-[(1-methylimidazol-2-yl)methoxy]pyridin-4-yl]-1H,5H,6H,7H-pyrrolo[3,2-c]pyridin-4-one], the IC50 was more than 1000 nM in experiment [1], 100 to 1000 nM in experiment [2] and less than 100 nM in experiment [4].

On to `COc1c(F)cccc1Nc1c(-c2ccncc2OCC2CCc3ncnn32)[nH]c2c1C(=O)NCC2` (stereo not shown) [compound 133], for which the figures for the IC50 in experiment [1], in experiment [2] and in experiment [4] were more than 1000 nM, 100 to 1000 nM and less than 100 nM, respectively.

By IC50 is commonly meant the midpoint of a concentration-inhibition curve.
